# Key:
# Wistar-Kyoto rat = conditions: rat ischemia reperfusion injury, Iwata et al. 2008; cited from earlier work
# rat = rat lung transplantation; cited from earlier work
# CD4+ T cells = assay: anti-CD3 induced T cell proliferation (3H thymidine incorporation), CD4+ T cells; assay type: cell-based, mouse
# Experimental: (§1) The non-specific MMP inhibitor, 1,10-phenanthroline (Sigma, St. Louis, Mo.) was reconstituted to 1 M solution in dimethyl sulfoxide (DMSO) and diluted to 0.001-0.1 μM in complete RPMI (cRPMI), composed of RPMI, […] L-glutamine, 100 U penicillin streptomycin (Gibco, Carlsbad, Calif.), 10% FCS (Hyclone, Logan, Utah), and 5×10^−5 M 2-mercaptoethanol (Sigma, St. Louis, Mo.).
# (§2) CD4^+ or CD8^+ T cells were isolated from wild-type Balb/c or C57BL/6 mice (1×10^6/ml) and incubated with the indicated concentrations of MMPIs or vehicle control for 6 hours. The treated cells were then washed three times in RPMI and cultured (1×10^5/well) in a 96 well plate in 200 μl of cRPMI in the presence of anti-CD3 antibody (0.5-1 μg/ml, BD Biosciences, San Jose, Calif.) at 37° C. for 72 hours and harvested as previously reported (Sumpter et al., 2008). This generalized protocol was used to measure T cell proliferation of CD4^+ and CD8^+ T cells following the various isolation methods and treatment conditions indicated. In MMP deficient parallel studies, MMP2−/−, MMP9−/−, MMP2/9−/− mice and littermate controls were cultured in the presence of anti-CD3 antibody for 72 h. […] The cells were washed three times in RPMI and added at varying ratios (treated: untreated) in co-culture with untreated CD4^+25− T cells in the presence of γ-irradiated antigen presenting cells in 200 μl of cRPMI at 37° C. for 72 hours and harvested as previously reported (Sumpter et al., 2008).
# T cells [1] = assay: cell viability after 1,10-phenanthroline treatment; assay type: cell-based, mouse; conditions: high phenanthroline concentrations
# [2] = tested on: OT-I transgenic CD8+ T cells; assay: antigen-specific proliferation of OT-I transgenic CD8+ T cells with OVA-pulsed APCs; assay type: cell-based, mouse; conditions: 5-20 μM, SIINFEKL-pulsed APCs, 72 hours (FIG. 8A)
# CD8+ T cells [3] = assay: anti-CD3 induced T cell proliferation (3H thymidine incorporation), CD8+ T cells; assay type: cell-based, mouse
# Experimental: as §1
# CD4^+ or CD8^+ T cells were isolated from wild-type Balb/c or C57BL/6 mice (1×10^6/ml) and incubated with the indicated concentrations of MMPIs or vehicle control for 6 hours. The treated cells were then washed three times in RPMI and cultured (1×10^5/well) in a 96 well plate in 200 μl of cRPMI in the presence of anti-CD3 antibody (0.5-1 μg/ml, BD Biosciences, San Jose, Calif.) at 37° C. for 72 hours and harvested as previously reported (Sumpter et al., 2008). This generalized protocol was used to measure T cell proliferation of CD4^+ and CD8^+ T cells following the various isolation methods and treatment conditions indicated. In MMP deficient parallel studies, MMP2−/−, MMP9−/−, MMP2/9−/− mice and littermate controls were cultured in the presence of anti-CD3 antibody for 72 h. […]
# NFATc1 = NFATc1 transcript expression by quantitative RT PCR in CD4+ T cells; assay type: cell-based, mouse; conditions: 5-20 μM, anti-CD3, vs vehicle (FIG. 5C)
# Experimental: (§3) Purified CD4^+ T cells were incubated with the indicated concentrations of SB3-CT for 6 hours and then washed three times with RPMI 1640. Drug or vehicle-treated T cells were cultured (1×10^6/ml) with anti-CD3 antibody (0.5 μg/ml) in cRPMI for 1-12 hours. Cells were collected and total RNA was isolated using an RNeasy RNA extraction kit (Qiagen, Inc., Valencia, Calif.) and mRNA expression levels were detected with PerfeCTa™ SYBR Green FastMix, Low ROX (Quanta Biosciences, Gaithersburg, Md.) on a Applied Biosystems 7500 according to the manufacturer's instructions. Each sample was normalized to murine β-actin. Primer sequences were designed and optimized using routine methodologies to specifically amplify each cytokine based on publicly available sequences.
# CD4+25+ T cells (Tregs) = assay: T cell suppressor assay with SB-3CT-treated CD4+25+ T cells (Tregs); assay type: cell-based, mouse; conditions: 10 μM treated CD4+25+ T cells, varying ratios (FIG. 7E)
# Experimental: as §2
# CD8+ T cells [4] = assay: anti-CD3 induced intracellular calcium flux (Fluo-4 NW); assay type: cell-based, mouse; conditions: 10 μM
# Experimental: Calcium flux was measured in CD4^+ and CD8^+ wild-type or MMP9 deficient or SB-3CT-treated (10 μM) T cells using the Fluo-4 NW Calcium Assay kit (Molecular Probes, Carlsbad, Calif.) in accord with the manufacturer's protocol. Cells were then stimulated with anti-CD3 antibody (10 μg/ml) and read in real time on a Molecular Devices FlexStation I (Sunnyvale, Calif.) for 300 seconds.
# IL-2 [5] = assay: IL-2 transcript expression by quantitative RT PCR; assay type: cell-based, mouse; conditions: 10 μM, various time points, anti-CD3, CD4+ T cells (FIG. 6C, D)
# Experimental: as §3
# CC10-OVA mice = assay: antigen-specific CD8+ T cell mediated lung injury, adoptive transfer of treated OT-I cells into CC10-OVA mice; assay type: in vivo, mouse
# Experimental: Lymph node and spleen were isolated from Thy1.1^+ OT-I transgenic mice and splenic CD8^+ T cells were isolated as stated above. […] 5×10^7 γ-irradiated wild-type splenocytes were cultured in 30 ml of 10% DMEM supplemented with 0.7 μg/ml of OVA peptide ([…]) for 5 min, followed by the addition of OT-1 Thy1.1^+ CD8^+ T cells (5×10^6), anti-CD28 antibody (2 μg/ml), IL-2 (132.02 U/ml) and IL-12 (10 ng/ml). On day 3, the cells were split and supplemented with more IL-2 (25 U/ml) in a final volume of 30 ml. On day 5, cells were harvested and prepared for adoptive transfer into CC10-OVA mice. Cells were resuspended in PBS, and 7.5×10^5 cells were intratracheally instilled into the lungs of CC10-OVA mice.
# The lung was finely minced on ice, followed by a 60-90 minute digestion at 37° C. with collagenase/dispase (0.2 mg/ml of each) in RPMI medium with 5% fetal calf serum (FCS), in the presence of 25 μg/ml DNase. Cells were passed through a 70 μm cell strainer, washed, and lung lymphocytes were isolated by density centrifugation. Cells were resuspended in FACS buffer (10% BSA in PBS) and analyzed immediately on a FACScan flow cytometer (Beckton Dickinson). FCS Express (DeNovo Software, Los Angeles, Calif.) was used for further analysis.
# BAL was collected from the lungs of wild-types and CC10 mice following adoptive transfer of vehicle and SB-3CT-treated OT-1 Tg T cells, by washing the mouse lung with 1.0 ml of sterile 1×PBS. Collected fluid was then centrifuged for 10 minutes at 2000 rpm. Cell pellets were resuspended in 200 μl of sterile 1×PBS. Cells were then stained with anti-GR1 antibody and analyzed immediately on a FACScan flow cytometer (Beckton Dickinson). FCS Express (DeNovo Software, Los Angeles, Calif.) was used for further analysis.
# Lungs were perfused, inflated and fixed with neutral buffered formalin. The sections were then embedded in paraffin, sectioned, and stained with hematoxylin and eosin. Images were acquired at 20× using an Olympus microscope and DP12 digital camera (Olympus, Center Valley, Pa.).
# MMP9 [6] = biological target: T1, MMP9 (Mus musculus, UniProt P41245); assay: MMP9 protein expression by gelatin zymography in CD8+ T cells; assay type: cell-based; conditions: 10 μM
# T1 construct: Cell lysates and conditioned media supernatant were collected, concentrated to 4× and centrifuged; endogenous in cells; host or cells: primary splenic CD8+ T cells from wild-type C57BL/6 mice
# T1 sequence (P41245 108-730): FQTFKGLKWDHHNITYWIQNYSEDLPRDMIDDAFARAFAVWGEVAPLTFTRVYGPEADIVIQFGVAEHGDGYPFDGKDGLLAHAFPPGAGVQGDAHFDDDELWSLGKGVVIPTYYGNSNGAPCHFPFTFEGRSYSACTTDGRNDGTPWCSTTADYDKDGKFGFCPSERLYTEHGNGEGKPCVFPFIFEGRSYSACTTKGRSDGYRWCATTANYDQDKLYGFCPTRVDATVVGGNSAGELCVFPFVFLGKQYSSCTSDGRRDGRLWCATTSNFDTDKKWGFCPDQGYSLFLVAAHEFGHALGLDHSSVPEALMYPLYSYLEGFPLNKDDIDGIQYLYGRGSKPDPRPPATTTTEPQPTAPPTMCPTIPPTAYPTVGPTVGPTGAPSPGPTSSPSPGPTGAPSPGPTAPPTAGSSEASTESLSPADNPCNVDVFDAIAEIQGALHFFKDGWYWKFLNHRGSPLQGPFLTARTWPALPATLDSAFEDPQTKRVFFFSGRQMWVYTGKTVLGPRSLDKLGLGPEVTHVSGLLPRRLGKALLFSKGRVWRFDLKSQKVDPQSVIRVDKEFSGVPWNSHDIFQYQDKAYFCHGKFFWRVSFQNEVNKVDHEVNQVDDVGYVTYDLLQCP
# Experimental: Cell lysates and conditioned media supernatant were collected, concentrated to 4× and centrifuged to remove any cell debris, and stored at −80° C. prior to assay. Samples were then subjected to zymography as reported previously (Yoshida et al., 2007).
# CD25 = CD25 transcript expression by quantitative RT PCR in CD4+ T cells; assay type: cell-based, mouse; conditions: 5-20 μM, anti-CD3, vs vehicle (FIG. 5D)
# Experimental: as §3
# T cells [7] = assay: cell viability by trypan blue exclusion and annexin V staining after SB-3CT; assay type: cell-based, mouse; conditions: following treatment with SB-3CT
# From the text: The data described in the Examples herein thus far raise the possibility that SB-3CT-induced cytotoxicity or anergy could account for the observed effects on proliferation.
# CD4+25− T cells = assay: T cell suppressor assay with SB-3CT-treated CD4+25− T cells; assay type: cell-based, mouse
# Experimental: as §2
# MMP9 [8] = biological target: MMP9 (Homo sapiens, UniProt P14780); conditions: Brown et al., 2000, Toth et al., Forbes et al., 2009; cited from earlier work
# Sequence of MMP9 (Homo sapiens, UniProt P14780) (P14780 94-707): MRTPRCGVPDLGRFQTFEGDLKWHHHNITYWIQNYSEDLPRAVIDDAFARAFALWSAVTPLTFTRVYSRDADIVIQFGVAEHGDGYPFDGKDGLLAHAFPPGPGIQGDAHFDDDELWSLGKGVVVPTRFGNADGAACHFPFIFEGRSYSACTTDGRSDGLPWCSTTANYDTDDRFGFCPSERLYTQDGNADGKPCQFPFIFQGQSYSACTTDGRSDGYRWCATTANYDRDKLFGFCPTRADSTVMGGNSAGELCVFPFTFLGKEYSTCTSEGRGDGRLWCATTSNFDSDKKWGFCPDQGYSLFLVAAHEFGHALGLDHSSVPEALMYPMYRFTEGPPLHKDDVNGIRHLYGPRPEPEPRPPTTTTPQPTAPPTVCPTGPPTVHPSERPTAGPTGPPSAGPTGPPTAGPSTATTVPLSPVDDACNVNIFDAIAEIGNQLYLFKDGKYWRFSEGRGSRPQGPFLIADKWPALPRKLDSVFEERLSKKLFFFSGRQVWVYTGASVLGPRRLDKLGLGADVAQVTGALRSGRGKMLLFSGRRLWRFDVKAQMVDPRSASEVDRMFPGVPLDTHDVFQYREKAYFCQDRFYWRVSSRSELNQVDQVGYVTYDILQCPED
# IL-2 [9] = assay: IL-2 protein expression by cytometric bead array; assay type: cell-based, mouse; conditions: 10 μM, various time points, anti-CD3, CD4+ T cells (FIG. 6C, D)
# Experimental: Purified MMP9 deficient or SB-3CT-treated (10 μM) CD4^+ T cells were incubated for 6 hours and then washed three times with RPMI 1640. MMP9 deficient or SB-3CT-treated T cells were cultured (1×10^6/ml) with anti-CD3 antibody (0.5 μg/ml) in cRPMI for 1-12 hours. Supernatants were collected and cytokine protein levels were measured using the Mouse Inflammatory Cytokine Bead Array Kit (BD Biosciences, San Jose, Calif.) according to the manufacturer's instructions.
# Foxp3 = Foxp3 transcript expression by quantitative RT PCR in CD4+ T cells; assay type: cell-based, mouse; conditions: 10 μM, anti-CD3, CD4+ T cells (FIG. 7B)
# Experimental: as §3
compound,measurement,setting,value
NC(=O)C1=C(O)C[C@@H]2C[C@@H]3Cc4cccc(O)c4C(=O)C3=C(O)[C@]2(O)C1=O [COL-3],antigenic collagen (V) in bronchoalveolar lavage,Wistar-Kyoto rat,lower levels
same,inflammation factors,Wistar-Kyoto rat,reduced inflammation factors
same,intragraft B cell hyperplasia,rat,induce intragraft B cell hyperplasia
same,T cell proliferation,"CD4+ T cells; 1 μM, 6 hours, then anti-CD3 72 hours (FIG. 2B)",proliferative response similar to the untreated control
same,T cell proliferation,"CD4+ T cells; higher doses (up to 100 μM), p<0.001 (FIG. 2B)",dose-dependent decrease in T cell proliferation
"c1cnc2c(c1)ccc1cccnc12 [1,10-phenanthroline]",cell viability after treatment,T cells [1],cells were viable after treatment
same,T cell proliferation,"CD4+ T cells; 0.001 μM, 6 hours, then soluble anti-CD3 antibody 72 hours (FIG. 2A)",proliferative response similar to untreated anti-CD3 antibody stimulated cells
same,T cell proliferation,"CD4+ T cells; higher doses (up to 0.1 μM), 6 hours, then anti-CD3 72 hours, p<0.001 (FIG. 2A)",significantly abrogated the proliferative response
O=S(=O)(CC1CS1)c1ccc(Oc2ccccc2)cc1 (stereo not drawn) [SB-3CT],antigen-specific proliferation,[2],completely abrogated the proliferative response
same,T cell proliferation,"CD8+ T cells [3]; 5-25 μM, anti-CD3 72 h, vs vehicle-treated cells (FIG. 2D)",dose-dependent decrease in proliferation
same,T cell proliferation with exogenous IL-2,"CD8+ T cells [3]; anti-CD3 plus exogenous murine IL-2, 72 h (FIG. 2F)",partial recovery of the proliferative response
same,NFATc1 transcript expression,NFATc1,abrogated NFATc1 and CD25 transcript expression in a dose-dependent manner
same,suppressive function of treated Tregs,CD4+25+ T cells (Tregs),retained their suppressive function
same,calcium influx in calcium containing media,"CD8+ T cells [4]; calcium containing media, anti-CD3 (FIG. 4D)",dramatic influx of exogenous calcium
same,intracellular calcium flux (release from the ER),"CD8+ T cells [4]; calcium-free media, anti-CD3 10 μg/ml (FIG. 4C)",increased intracellular calcium flux
same,IL-2 transcript expression,IL-2 [5],increased over time
same,"lung histology, mononuclear cellular infiltration",CC10-OVA mice; H&E lung sections after adoptive transfer of treated OT-1 cells,mononuclear cellular infiltration was minimal
same,quantity of total BAL cells,"CC10-OVA mice; seven days after adoptive transfer of 10 μM treated OT-I cells, vs vehicle (FIG. 8B)",no differences
same,quantity of neutrophils (Gr-1+) in BAL,"CC10-OVA mice; seven days after adoptive transfer, vs vehicle, p<0.01 (FIG. 8C)",decreased significantly
same,CD8+ Thy1.1+ (donor) cells in lung parenchyma,"CC10-OVA mice; vs vehicle, p<0.01 (FIG. 9A)",significantly fewer
same,CD25 expression on CD8+ Thy1.1+ T cells in lung,"CC10-OVA mice; vs vehicle, p<0.01 (FIG. 9B)",fewer of these cells expressed the activation marker CD25
same,MMP9 protein expression,MMP9 [6],decreased
same,CD25 transcript expression,CD25,abrogated NFATc1 and CD25 transcript expression in a dose-dependent manner
same,cell viability,T cells [7],greater than 90%
same,T cell proliferation,"CD4+ T cells; 5-25 μM, anti-CD3 72 h, vs vehicle-treated cells (FIG. 2C)",dose-dependent decrease in proliferation
same,T cell proliferation with exogenous IL-2,"CD4+ T cells; anti-CD3 plus exogenous murine IL-2, 72 h (FIG. 2E)",partial recovery of the proliferative response
same,inhibition at 10 µM,"CD4+25− T cells; Mus musculus, T-cell, 10 μM treated CD4+25− cells, each ratio with untreated CD4+25− T cells, 72 hours (FIG. 7D), read-out: inhibition of T cell proliferation in co-culture",50%
same,induction of regulatory T cell function,CD4+25− T cells; increasing ratio of SB-3CT-treated cells (FIG. 7D),does not induce regulatory T cell function
same,mode of MMP9 inhibition,MMP9 [8],tight-binding inhibition
same,IL-2 protein expression,IL-2 [9],down regulated
same,foxp3 transcripts,Foxp3,increased
TIMP-1: tissue-inhibitor of metalloproteinases,delayed type hypersensitivity responses to donor antigens and type V collagen,rat,differential effects
same,rejection pathology,rat,neither affected the onset of rejection pathology

# — patent US20110293643A1, “COMPOUNDS AND METHODS FOR INHIBITING MMP2 AND MMP9” (priority 2009, published 2011)
